# Measurements taken from ChEMBL document CHEMBL3507680, “University of Dundee, Gates Library screen for HepG2 cell viability”.
# Assay: Human HepG2 cell viability assay in 384 well format
# Format: toxicity, cell-based
# Set-up: dose 125 nL, time 70.5 hour; cytotoxicity at 70.5 h: concentration not given beside the values
# Conditions: HepG2 cells, read-out: Inhibition
row,SMILES,cytotoxicity at 70.5 h
1,O=C1CC(NS(=O)(=O)c2ccc3ccccc3c2)CN1 (stereo not drawn),-5.96%
2,CCNC(=O)c1cc2n(n1)CCCO2,-12.7%
3,CCOC(=O)CNC(=O)c1cc2n(n1)CCCO2,-11.8%
4,Cc1cc2cc(CNC(=O)c3cnn4c3OCCC4)ccc2[nH]1,-1.4%
5,CC1(C)OCC2(CO1)CN(C(=O)c1cccc3ccccc13)C2,-8.48%
6,CCSc1ccccc1C(=O)N1CC2(COC(C)(C)OC2)C1,-4.65%
7,CC1(C)OCC2(CO1)CN(S(=O)(=O)c1ccc(Br)s1)C2,4.85%
8,CN(C)c1ncc(NC(=O)c2ccccc2C(F)(F)F)cn1,-4.64%
9,COCC(=O)Nc1cnc(N2CCN(c3ccccc3)CC2)nc1,2.64%
10,COc1ccc(C)cc1NC(=O)Nc1cnc(N2CCCC2)nc1,1.09%
11,COc1ccc(S(=O)(=O)Nc2cnc(N(C)C)nc2)cc1,29.6%
12,CCc1ccc(S(=O)(=O)Nc2cnc(N3CCOCC3)nc2)cc1,-2.95%
13,O=S(=O)(Nc1cnc(N2CCOCC2)nc1)c1cccc(F)c1,1.23%
14,O=S(=O)(Nc1cnc(N2CCOCC2)nc1)c1ccc(C(F)(F)F)cc1,2.45%
15,Cc1noc(CNC(=O)CN(C)c2nc3ccccc3s2)n1,-5.76%
16,Cc1ccc(N2CCO[C@@H]3CN(Cc4cccc(C)n4)CC[C@@H]3C2)nn1,-3.06%
17,Fc1cccnc1N1CCOCC2(CCCNC2)C1 (stereo not drawn),0.635%
18,COCCC1COC2(CCN(C(=O)CC3CCCC3)CC2)C1 (stereo not drawn),-3.15%
19,O=S(=O)(C1CC1)N1CC[C@H](OCC2CC2)[C@@H]1Cc1ccncc1,-4.87%
20,COCCC1COC2(CCN(C(=O)C3CCCC3)CC2)C1 (stereo not drawn),-6.45%
21,COCCC1COC2(CCN(C(=O)C3CCCCC3)CC2)C1 (stereo not drawn),-5.85%
22,Cc1cnc(N2CCC3(CC2)CC(NC(=O)N(C)C)CO3)nc1 (stereo not drawn),-0.406%

row,SMILES,cytotoxicity at 70.5 h
1,CN1CCCN(C(=O)c2cc3c(s2)CCN3C(=O)C2CC2)CC1,-3.39%
2,CN1CCCN(C(=O)c2cc3c(s2)CCN3C(=O)c2ccccc2)CC1,-1.37%
3,CN1[C@@H](C(=O)NCC2CC2)C[C@@H]2CN(c3ncccn3)C[C@@H]21,-3.13%
4,Cc1nnc([C@H]2CC[C@@H]3[C@@H](CCN3CC3CCOCC3)O2)o1,-2.48%
5,O=C(c1ccsc1)N1C[C@H](N2CCOCC2)[C@@H]2OCCC[C@@H]21,-1.61%
6,Cc1nnc([C@@H]2CC[C@@H]3[C@@H](CCN3C3CCOCC3)O2)o1,-3.43%
7,O=C(C1CCOCC1)N1CC[C@@H]2[C@H]1CCC(=O)N2c1ccccc1,13.7%
8,CC(=O)N1CCO[C@@H]2CN(C(=O)c3ccccc3)CC[C@@H]2C1,13.4%
9,O=c1cc(Cn2cncn2)nc2n1CCCN(CC1CCOCC1)C2,-3.57%
10,CN(C)S(=O)(=O)N1CCC2(CC1)CC(OCC1CC1)CO2 (stereo not drawn),-4.38%
11,CN(C)Cc1cc(=O)n2c(n1)CN(CC1CCOCC1)CCC2,-10.5%
12,Fc1cccc(N2CCCC3(C2)CN(c2cnccn2)CCO3)c1 (stereo not drawn),-5.22%
13,Cc1ccc(CC(=O)N2CCCn3nnc(Cn4cccn4)c3C2)cc1,-9.04%
14,O=S(=O)(C1CC1)N1CCOC2(COCCN(c3ncccn3)C2)C1 (stereo not drawn),-9.98%
15,O=C(c1ccncc1)N1CCCn2nnc(Cn3cccn3)c2C1,-8.56%
16,CCOCC1CN(Cc2ccoc2)Cc2cn(CC3CC3)nc21 (stereo not drawn),-19.8%
17,O=c1cc(Cn2ccnc2)nc2n1CCCN(CC1CCOCC1)C2,-19.5%
18,O=c1cc(CN2CCCC2)nc2n1CCCN(CC1CCOCC1)C2,-13.6%
19,O=C(CO)N1CCCn2nnc(Cn3cccn3)c2C1,11.5%
20,CN(C)CCN1C[C@@H]2OCCN(Cc3cnn(C)c3)[C@@H]2C1,-8.58%
21,COCCN1Cc2ccnn2CC(COCc2cccnc2)C1 (stereo not drawn),-5.12%
22,CNC(=O)c1cc2c(nc1NCC(C)C)CCN(S(C)(=O)=O)CC2,-5.11%

row,SMILES,cytotoxicity at 70.5 h
1,Cc1ccc(CN2Cc3ccnn3CC(COCc3cccnc3)C2)o1 (stereo not drawn),-5.79%
2,CCS(=O)(=O)N1CCc2cc(C(=O)NC)c(NCC(C)C)nc2CC1,-4.65%
3,CNC(=O)c1cc2c(nc1NCC(C)C)CCN(S(=O)(=O)N(C)C)CC2,-5.52%
4,O=C(c1n[nH]c2c1CCN(Cc1nccs1)C2)N1CCOCC1,4.7%
5,Cc1cnc(N2Cc3nccn3CC(Cn3nc(C)nc3C)C2)nc1 (stereo not drawn),0.499%
6,Cn1cc(CN2CCO[C@H]3CN(Cc4ccsc4)C[C@H]32)cn1,-14%
7,Cn1cc(CN2C[C@@H]3OCCN(CC4CCCC4)[C@@H]3C2)cn1,-7.97%
8,CS(=O)(=O)N1CCCC12CCCN(C(=O)c1ccno1)C2 (stereo not drawn),-9.08%
9,O=C(CC1CC1)N1CCC2(CC(=O)N(c3cccc(F)c3)C2)C1 (stereo not drawn),-6.99%
10,O=C(Cn1nc(Br)nc1Br)N1CCCC1,-0.289%
11,Cn1c(N)c2c(=O)n(C)c(-c3ccccc3)cc2c(C#N)c1=O,-10.5%
12,Cn1c(N)c2c(=O)n(C)c(-c3ccc(Cl)cc3)cc2c(C#N)c1=O,-8.81%
13,COc1cc2nc(C)n(CC(=O)O)c(=O)c2cc1OC,-8.36%
14,O=C(Cn1ccc2ccc(Br)cc21)NC[C@@H]1CCCN2CCCC[C@H]12,41.4%
15,COc1cccc2c1ccn2CCC(=O)NCCCC(=O)O,-3.23%
16,COC(=O)c1ccc(C2CC(=O)Oc3cc(C)[nH]c(=O)c32)cc1 (stereo not drawn),4.58%
17,O=C(NCCCN1CCOCC1)c1cc(-c2ccc3c(c2)CCO3)n[nH]1,-0.337%
18,CC(C)S(=O)(=O)c1nnc(CCNC(=O)OC(C)(C)C)o1,29.5%
19,CCC(C)[C@H](NC(=O)c1cc(Br)ccc1-n1cnnn1)C(=O)OC (stereo partly drawn),42%
20,O=C(NCC1CC1)c1nc(COc2ccc3c(c2)OCO3)no1,0.603%
21,O=C(NCCc1c[nH]cn1)c1ccc2c(c1)C(=O)N(C1CC1)C2=O,3.29%
22,O=C1N(c2ccc(F)cc2)Cc2nc(=O)n(Cc3cccc(Cl)c3)n21,-0.858%

row,SMILES,cytotoxicity at 70.5 h
1,O=C(COc1coc(CN2CCCCC2)cc1=O)Nc1ccccc1Cl,-9.78%
2,CC1=Nc2c(c(=O)[nH]n2C(C)C)C(c2ccccc2)S1 (stereo not drawn),-3.86%
3,CC1=Nc2c(c(=O)[nH]n2C(C)C)C(c2cccs2)S1 (stereo not drawn),-8.68%
4,COc1ccc2nnc(CCCC(=O)NCCC3=CCCCC3)n2n1,-4.24%
5,O=c1cc2c(nn1CN1CCN(c3cccc(Cl)c3)CC1)CCC2,-6.87%
6,CC1=Nc2c(c(=O)[nH]n2C2CCOCC2)C(c2cccc(Br)c2)S1 (stereo not drawn),4.78%
7,COc1ccc2nnc(CCCC(=O)NCc3cccn3C)n2n1,6.5%
8,O=C1CSC(c2ccsc2)c2c(n(C3CCOCC3)[nH]c2=O)N1 (stereo not drawn),27.6%
9,CNC(=O)c1cccnc1Oc1ccccc1,-5.8%
10,CCOC(=O)CN1CCC2(CC1)CC(=O)c1ccc(OC)cc1O2,2.89%
11,CCc1ccc(NC(=O)C2OC(c3cccs3)=NN2C(C)=O)cc1 (stereo not drawn),40.2%
12,O=C(Cc1c(F)cccc1F)N1CCN(CC(=O)N2CCCC2)CC1,-5.05%
13,Cc1n[nH]c2c1C(c1ccsc1)SCC(=O)N2 (stereo not drawn),8.67%
14,COc1ccc(C(=O)N2CCCC2c2ccco2)cc1OC (stereo not drawn),-12.1%
15,Cc1ccc(N2CC[C@@H]3CN(Cc4cccc(C)n4)C[C@@H]3C2)nn1,-4.34%
16,Cn1nc(Cn2cccn2)c2c1CN(C1CCOCC1)C2,-0.608%
17,O=C(C1CCC2(CCN(c3nncs3)CC2)CO1)N1CCCC1 (stereo not drawn),-1.78%
18,CCN1CC[C@]2(CN(Cc3nccs3)C[C@H]2c2ccccc2)C1=O,-0.124%
19,O=C1NCC[C@]12CN(Cc1nccs1)C[C@H]2c1ccccc1,-0.358%
20,Fc1cnc(N2CC[C@@H]3O[C@@H](COCc4cccnc4)CC[C@@H]32)nc1,-6.15%
21,O=S(=O)(NCC1OCCc2cn(CC3CCOCC3)nc21)C1CC1 (stereo not drawn),-3.73%
22,CN(C)C1CCN(C(=O)c2cc3c(s2)CCN3C(=O)C2CC2)CC1,-2.71%

row,SMILES,cytotoxicity at 70.5 h
1,O=C(NCc1cccs1)[C@]12COC[C@H]1CN(c1ncccn1)C2,-3.55%
2,CN(C)C[C@H]1OC[C@@H]2CCN(C(=O)Cc3cccs3)C[C@@H]21,-9.21%
3,CN(C)S(=O)(=O)N1C[C@H]2CCC[C@@]2(COc2cccnc2)C1,-5.8%
4,Cc1nc(C)n(CC2CN(Cc3cccs3)Cc3nccn3C2)n1 (stereo not drawn),-0.931%
5,CN(C)C(=O)c1n[nH]c2c1CN(Cc1nccs1)CC2,-1.73%
6,CNC(=O)c1cc2c(nc1NCC(C)C)CCN(c1ncccn1)CC2,4.12%
7,O=S(=O)(C1CC1)N1CC[C@H]2OCC[C@@]2(COc2ncccc2F)C1,-12.6%
8,Fc1cnc(N2CC[C@@H]3O[C@@H](COCc4ccccn4)CC[C@@H]32)nc1,7.99%
9,Cc1ccc(CN2CCc3c(CN4CCCC4)n[nH]c3C2)s1,-4.44%
10,COC[C@]12COC[C@H]1CN(Cc1ccc3ccccc3n1)C2,-3.53%
11,Cc1ccc(N2C[C@H]3CCC[C@@]3(COc3cccnc3)C2)nn1,-8.26%
12,O=C(NCc1ccccn1)[C@H]1COC[C@H]2CN(c3ncccn3)C[C@H]21,-4.8%
13,Cc1nc(C)n(CC2CN(Cc3ccncc3)Cc3nccn3C2)n1 (stereo not drawn),-4.22%
14,Cc1ncsc1CN1C[C@@H](OCc2ccncc2)[C@H]2OCCC[C@H]21,3.55%
15,COCCN1CCc2cc(C(=O)NC(C)C)c(NCC(C)C)nc2CC1,-16.4%
16,CCO[C@@H]1CN(Cc2scnc2C)[C@@H]2CCCO[C@@H]21,-10.5%
17,CN1CCN([C@@H]2CCN(CC3CCOC3)[C@H]2Cc2cnn(C)c2)CC1 (stereo partly drawn),-13%
18,CN(C)C[C@]12COC[C@H]1CN(Cc1ccc3ccccc3n1)C2,-11.7%
19,CN1CCN([C@@H]2CCN(C3CCOC3)[C@H]2Cc2cnn(C)c2)CC1 (stereo partly drawn),-12.4%
20,Cc1ncsc1CN1C[C@@H](OCc2ccccn2)[C@H]2OCCC[C@H]21,7.35%
